From PubChem BioAssay (NCI)
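Step 1: Grow cells in 96-well plates. Step 2: Expose to compound for 48 hours at 5 concentrations. Step 3: Interpolate endpoints linearly; if unreached, use highest concentration. GI50 is the concentration that inhibits growth by half. TGI: concentration producing complete growth inhibition.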

Legend:
Assay in all cases: growth of human tumour cells (NCI), 48 h
HOP-62 NSCLC = system: HOP-62 NSCLC
ACHN renal = system: ACHN renal
786-0 renal = system: 786-0 renal
KM12 colon = system: KM12 colon
SW-620 colon = system: SW-620 colon
OVCAR-5 ovarian = system: OVCAR-5 ovarian
NCI-H460 lung = system: NCI-H460 lung
SK-OV-3 ovarian = system: SK-OV-3 ovarian

O=C1NC(=O)C(c2ccccc2)=C1Nc1ccccc1
GI50 (HOP-62 NSCLC): > 25 µM | TGI (HOP-62 NSCLC): > 25 µM | GI50 (ACHN renal): > 25 µM | TGI (ACHN renal): > 25 µM | GI50 (786-0 renal): > 25000 nM | TGI (786-0 renal): > 25 µM | GI50 (KM12 colon): > 25 µM | TGI (KM12 colon): > 25 µM | GI50 (SW-620 colon): > 25 µM | TGI (SW-620 colon): > 25 µM | GI50 (OVCAR-5 ovarian): > 25 µM | TGI (OVCAR-5 ovarian): > 25 µM | GI50 (NCI-H460 lung): > 25 µM | TGI (NCI-H460 lung): > 25 µM | GI50 (SK-OV-3 ovarian): > 25 µM | TGI (SK-OV-3 ovarian): > 25 µM

CN(CSc1ccc(Cl)cc1)c1ccc(CSc2ccc(Cl)cc2)cc1
GI50 (HOP-62 NSCLC): 13.6 µM | TGI (HOP-62 NSCLC): 29.9 µM | GI50 (ACHN renal): 6.28 µM | TGI (ACHN renal): 22.3 µM | GI50 (786-0 renal): 1800 nM | TGI (786-0 renal): 11 µM | GI50 (KM12 colon): 3.24 µM | TGI (KM12 colon): 15.1 µM | GI50 (SW-620 colon): 3.96 µM | TGI (SW-620 colon): 15.9 µM | GI50 (OVCAR-5 ovarian): 13.5 µM | TGI (OVCAR-5 ovarian): 34.5 µM | GI50 (NCI-H460 lung): 3.65 µM | TGI (NCI-H460 lung): 15.6 µM | GI50 (SK-OV-3 ovarian): 7.9 µM | TGI (SK-OV-3 ovarian): 23.4 µM

CC(C)OCc1cc(CN2CCN(c3cccc(Cl)c3)CC2)c(O)c2ncccc12
GI50 (HOP-62 NSCLC): 0.431 µM | TGI (HOP-62 NSCLC): 6.54 µM | GI50 (ACHN renal): 0.332 µM | TGI (ACHN renal): 12.4 µM | GI50 (786-0 renal): 785 nM | TGI (786-0 renal): 9.56 µM | GI50 (KM12 colon): 0.574 µM | TGI (KM12 colon): 13.2 µM | GI50 (SW-620 colon): 0.852 µM | TGI (SW-620 colon): 17.4 µM | GI50 (OVCAR-5 ovarian): 3.6 µM | TGI (OVCAR-5 ovarian): 15.1 µM | GI50 (NCI-H460 lung): 0.41 µM | TGI (NCI-H460 lung): 11.2 µM | GI50 (SK-OV-3 ovarian): 0.71 µM | TGI (SK-OV-3 ovarian): 12.2 µM

N#C/C(=C\c1ccc(F)cc1)n1nc2cccc(F)c2n1
GI50 (HOP-62 NSCLC): 3.54 µM | TGI (HOP-62 NSCLC): > 100 µM | GI50 (ACHN renal): 5.41 µM | TGI (ACHN renal): > 100 µM | GI50 (786-0 renal): 7130 nM | TGI (786-0 renal): > 100 µM | GI50 (KM12 colon): 2.83 µM | TGI (KM12 colon): > 100 µM | GI50 (SW-620 colon): 3.45 µM | TGI (SW-620 colon): > 100 µM | GI50 (OVCAR-5 ovarian): 5.04 µM | TGI (OVCAR-5 ovarian): > 100 µM | GI50 (NCI-H460 lung): 3.01 µM | TGI (NCI-H460 lung): 12.9 µM

COc1cc2c(cc1OCCCCn1c(-c3cccs3)nc3ccccc31)N=C[C@@H]1CCCN1C2=O
GI50 (ACHN renal): 2.81 µM | TGI (ACHN renal): 7.73 µM | GI50 (786-0 renal): 1710 nM | TGI (786-0 renal): 5.9 µM | GI50 (KM12 colon): 1.92 µM | TGI (KM12 colon): 5.38 µM | GI50 (SW-620 colon): 1.84 µM | TGI (SW-620 colon): 10.3 µM | GI50 (OVCAR-5 ovarian): 3.27 µM | TGI (OVCAR-5 ovarian): 9.13 µM | GI50 (NCI-H460 lung): 1.55 µM | TGI (NCI-H460 lung): 4.38 µM | GI50 (SK-OV-3 ovarian): 3.32 µM | TGI (SK-OV-3 ovarian): 9.19 µM

O=C1c2cccnc2C(=O)c2c1c(C(=O)OCCc1ccccn1)c1ccccn21
GI50 (HOP-62 NSCLC): < 0.01 µM | TGI (HOP-62 NSCLC): 0.326 µM | GI50 (ACHN renal): < 0.01 µM | TGI (ACHN renal): 1.22 µM | GI50 (786-0 renal): 252 nM | TGI (786-0 renal): 1.26 µM | GI50 (KM12 colon): 0.0946 µM | TGI (KM12 colon): > 22.4 µM | GI50 (SW-620 colon): < 0.01 µM | TGI (SW-620 colon): > 44.8 µM | GI50 (OVCAR-5 ovarian): 0.497 µM | TGI (OVCAR-5 ovarian): 10.5 µM | GI50 (NCI-H460 lung): < 0.01 µM | TGI (NCI-H460 lung): 0.079 µM | GI50 (SK-OV-3 ovarian): 0.0539 µM | TGI (SK-OV-3 ovarian): 1.17 µM

CCCCN(CC)CCCCCCCCCCN1CCCc2cc(OC)ccc21
GI50 (HOP-62 NSCLC): 2.69 µM | TGI (HOP-62 NSCLC): 10.2 µM | GI50 (ACHN renal): 3.91 µM | TGI (ACHN renal): 14.9 µM | GI50 (786-0 renal): 2030 nM | TGI (786-0 renal): 3.94 µM | GI50 (KM12 colon): 2.31 µM | TGI (KM12 colon): 5.14 µM | GI50 (SW-620 colon): 2.23 µM | TGI (SW-620 colon): 6.24 µM | GI50 (OVCAR-5 ovarian): 6.37 µM | TGI (OVCAR-5 ovarian): 24.1 µM | GI50 (NCI-H460 lung): 2.52 µM | TGI (NCI-H460 lung): 6.6 µM | GI50 (SK-OV-3 ovarian): 5.19 µM | TGI (SK-OV-3 ovarian): 21 µM

O=c1[nH]c2ccccc2n2cc3ccccc3c12
GI50 (HOP-62 NSCLC): 4.42 µM | TGI (HOP-62 NSCLC): 17.9 µM | GI50 (ACHN renal): 1.81 µM | TGI (ACHN renal): 7.18 µM | GI50 (786-0 renal): 4230 nM | TGI (786-0 renal): 18.1 µM | GI50 (KM12 colon): 19.2 µM | TGI (KM12 colon): 40 µM | GI50 (SW-620 colon): 3.69 µM | TGI (SW-620 colon): > 100 µM | GI50 (OVCAR-5 ovarian): 10.4 µM | TGI (OVCAR-5 ovarian): 35.5 µM | GI50 (NCI-H460 lung): 7.8 µM | TGI (NCI-H460 lung): > 100 µM | GI50 (SK-OV-3 ovarian): 12.4 µM | TGI (SK-OV-3 ovarian): 35.8 µM

O=c1[nH]c(F)nc2c1ncn2C1OC(CO)C(O)C1O (centres undefined)
GI50 (HOP-62 NSCLC): > 100 µM | TGI (HOP-62 NSCLC): > 100 µM | GI50 (ACHN renal): > 100 µM | TGI (ACHN renal): > 100 µM | GI50 (786-0 renal): > 100000 nM | TGI (786-0 renal): > 100 µM | GI50 (KM12 colon): > 100 µM | TGI (KM12 colon): > 100 µM | GI50 (SW-620 colon): > 100 µM | TGI (SW-620 colon): > 100 µM | GI50 (OVCAR-5 ovarian): > 100 µM | TGI (OVCAR-5 ovarian): > 100 µM | GI50 (NCI-H460 lung): > 100 µM | TGI (NCI-H460 lung): > 100 µM | GI50 (SK-OV-3 ovarian): > 100 µM | TGI (SK-OV-3 ovarian): > 100 µM

CCN(CC)CC(O)COc1c(Br)c(Br)c(Br)c2c1OC(C)(C)C2 (centres undefined)
GI50 (HOP-62 NSCLC): 4.03 µM | TGI (HOP-62 NSCLC): 19.7 µM | GI50 (ACHN renal): 4.94 µM | TGI (ACHN renal): 16.4 µM | GI50 (786-0 renal): 3130 nM | TGI (786-0 renal): 11.9 µM | GI50 (KM12 colon): 3.69 µM | TGI (KM12 colon): 13.8 µM | GI50 (SW-620 colon): 2.26 µM | TGI (SW-620 colon): 4.92 µM | GI50 (OVCAR-5 ovarian): 7.68 µM | TGI (OVCAR-5 ovarian): 23.8 µM | GI50 (NCI-H460 lung): 3.28 µM | TGI (NCI-H460 lung): 11.6 µM | GI50 (SK-OV-3 ovarian): 16.7 µM | TGI (SK-OV-3 ovarian): 36.4 µM

Cc1cc(=O)oc2cc(OC(=O)Nc3ccccc3)ccc12
TGI (HOP-62 NSCLC): > 100 µM | TGI (ACHN renal): > 100 µM | TGI (786-0 renal): > 100 µM | TGI (KM12 colon): > 100 µM | TGI (SW-620 colon): > 100 µM | TGI (OVCAR-5 ovarian): > 100 µM | TGI (NCI-H460 lung): > 100 µM | TGI (SK-OV-3 ovarian): > 100 µM

CC1(C)OC2C(CO)OC(n3ccc(N)nc3=O)C2O1 (centres undefined)
TGI (HOP-62 NSCLC): > 100 µM | TGI (ACHN renal): > 100 µM | TGI (786-0 renal): > 100 µM | TGI (KM12 colon): > 100 µM | TGI (SW-620 colon): > 100 µM | TGI (OVCAR-5 ovarian): > 100 µM | TGI (NCI-H460 lung): > 100 µM | TGI (SK-OV-3 ovarian): > 100 µM

Cn1c(NCC(CN2CCCC2)OC(=O)c2ccccc2)cc(=O)n(C)c1=O (centres undefined)
GI50 (HOP-62 NSCLC): > 100 µM | TGI (HOP-62 NSCLC): > 100 µM | GI50 (ACHN renal): > 100 µM | TGI (ACHN renal): > 100 µM | GI50 (786-0 renal): > 100000 nM | TGI (786-0 renal): > 100 µM | GI50 (SW-620 colon): > 100 µM | TGI (SW-620 colon): > 100 µM | GI50 (OVCAR-5 ovarian): > 100 µM | TGI (OVCAR-5 ovarian): > 100 µM | GI50 (NCI-H460 lung): > 100 µM | TGI (NCI-H460 lung): > 100 µM | GI50 (SK-OV-3 ovarian): > 100 µM | TGI (SK-OV-3 ovarian): > 100 µM

O=C(c1cccs1)c1nc2cc(Cl)ccc2[n+]([O-])c1C(F)(F)F
GI50 (HOP-62 NSCLC): > 100 µM | TGI (HOP-62 NSCLC): > 100 µM | GI50 (ACHN renal): > 100 µM | TGI (ACHN renal): > 100 µM | GI50 (786-0 renal): > 100000 nM | TGI (786-0 renal): > 100 µM | GI50 (KM12 colon): 85.4 µM | TGI (KM12 colon): > 100 µM | GI50 (SW-620 colon): > 100 µM | TGI (SW-620 colon): > 100 µM | GI50 (OVCAR-5 ovarian): > 100 µM | TGI (OVCAR-5 ovarian): > 100 µM | GI50 (NCI-H460 lung): 91.9 µM | TGI (NCI-H460 lung): > 100 µM | GI50 (SK-OV-3 ovarian): > 100 µM | TGI (SK-OV-3 ovarian): > 100 µM

O=C1C=CC(=O)N1c1ccc(I)cc1
TGI (HOP-62 NSCLC): 38.2 µM | TGI (ACHN renal): 33.3 µM | TGI (786-0 renal): 20.7 µM | TGI (KM12 colon): 45.8 µM | TGI (SW-620 colon): 49.3 µM | TGI (OVCAR-5 ovarian): 47.6 µM | TGI (NCI-H460 lung): > 86.3 µM | TGI (SK-OV-3 ovarian): 32.5 µM

Cc1ccc(NC(=O)c2nc(S(C)(=O)=O)oc2-c2ccc(F)cc2)cc1Nc1ccc2ncn(C)c(=O)c2c1
GI50 (HOP-62 NSCLC): 2.49 µM | TGI (HOP-62 NSCLC): 7.11 µM | GI50 (ACHN renal): 1.62 µM | TGI (ACHN renal): 2.97 µM | GI50 (786-0 renal): 2000 nM | TGI (786-0 renal): 3.55 µM | GI50 (KM12 colon): 3.12 µM | TGI (KM12 colon): 11.1 µM | GI50 (OVCAR-5 ovarian): 2.1 µM | TGI (OVCAR-5 ovarian): 5.29 µM | GI50 (NCI-H460 lung): 3.26 µM | TGI (NCI-H460 lung): 10.9 µM | GI50 (SK-OV-3 ovarian): 14.1 µM | TGI (SK-OV-3 ovarian): 27.1 µM
